Experimental data taken from PubChem BioAssay AID220 (DTP/NCI, 2004).
“And” between values parts separate entries of the source, which are not always exact repeats. Equal values may be shown once. Results filed as inconclusive are left out.

Test system: CD8F1 mice, subcutaneous mammary adenocarcinoma, T/C%
Test: NCI In Vivo Anticancer Drug Screen. Data for tumor model Mammary Adenocarcinoma CD8F1 (subcutaneous) in CD8F1
Settings: higher = larger tumour
Outline: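 Compound-treated versus vehicle-treated mice with transplantable tumors; survival or tumor size compared as T/C.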

[1] = endpoint: median tumor weight change, dose: 125.0 mg/kg/injection, schedule: Q01DX001 (ip), vehicle: Klucel (hydroxypropylcellulose) (HPC)
[2] = endpoint: median tumor weight change, dose: 250.0 mg/kg/injection, schedule: Q01DX001 (ip), vehicle: Klucel (hydroxypropylcellulose) (HPC)
[3] = endpoint: median tumor weight change, dose: 500.0 mg/kg/injection, schedule: Q01DX001 (ip), vehicle: Klucel (hydroxypropylcellulose) (HPC)
[4] = endpoint: median tumor weight (est.), dose: 12.5 mg/kg/injection, schedule: Q07DX005 (ip), vehicle: saline
[5] = endpoint: median tumor weight change, dose: 1000.0 mg/kg/injection, schedule: Q01DX001 (ip), vehicle: Klucel (hydroxypropylcellulose) (HPC)

## C[C@H]1C[C@@H]2[C@H]([C@@H](O)C[C@@]3(C)[C@H]2CC[C@]3(O)C(=O)CO)[C@@]2(C)C=CC(=O)C=C12
endpoint: median tumor weight (est.), dose: 6.25 mg/kg/injection, schedule: Q07DX005 (ip), vehicle: Klucel (hydroxypropylcellulose) (HPC)
  T/C: 70 % of control
endpoint: median tumor weight (est.), dose: 12.5 mg/kg/injection, schedule: Q07DX005 (ip), vehicle: Klucel (hydroxypropylcellulose) (HPC)
  T/C: 63 % of control
endpoint: median tumor weight (est.), dose: 25.0 mg/kg/injection, schedule: Q07DX005 (ip), vehicle: Klucel (hydroxypropylcellulose) (HPC)
  T/C: 63 % of control
endpoint: median tumor weight (est.), dose: 50.0 mg/kg/injection, schedule: Q07DX005 (ip), vehicle: Klucel (hydroxypropylcellulose) (HPC)
  T/C: 60 % of control
endpoint: median tumor weight (est.), dose: 100.0 mg/kg/injection, schedule: Q07DX005 (ip), vehicle: Klucel (hydroxypropylcellulose) (HPC)
  T/C: 53 % of control
endpoint: median tumor weight (est.), dose: 200.0 mg/kg/injection, schedule: Q07DX005 (ip), vehicle: Klucel (hydroxypropylcellulose) (HPC)
  T/C: 28 % of control

## ClC1C(Cl)C(Cl)C(Cl)C(Cl)C1Cl (stereo not given)
endpoint: median tumor weight change, dose: 62.5 mg/kg/injection, schedule: Q01DX001 (ip), vehicle: Klucel (hydroxypropylcellulose) (HPC)
  T/C: 169 % of control
[1]
  T/C: 105 % of control
[2]
  T/C: 115 % of control
[3]
  T/C: 64 % of control

## CC1=CC(C)(C)Nc2ccc(CSc3ccccc3)cc21
endpoint: median tumor weight change, dose: 50.0 mg/kg/injection, schedule: Q01DX001 (ip), vehicle: saline + Tween-80 + alcohol
  T/C: 46 % of control
endpoint: median tumor weight change, dose: 62.0 mg/kg/injection, schedule: Q01DX001 (ip), vehicle: DMSO
  T/C: 37 % of control
endpoint: median tumor weight change, dose: 100.0 mg/kg/injection, schedule: Q01DX001 (ip), vehicle: saline + Tween-80 + alcohol
  T/C: 37 % of control
endpoint: median tumor weight change, dose: 125.0 mg/kg/injection, schedule: Q01DX001 (ip), vehicle: DMSO
  T/C: 38 % of control
endpoint: median tumor weight change, dose: 200.0 mg/kg/injection, schedule: Q01DX001 (ip), vehicle: saline + Tween-80 + alcohol
  T/C: 47 % of control
endpoint: median tumor weight change, dose: 250.0 mg/kg/injection, schedule: Q01DX001 (ip), vehicle: DMSO
  T/C: 29 % of control
endpoint: median tumor weight change, dose: 400.0 mg/kg/injection, schedule: Q01DX001 (ip), vehicle: saline + Tween-80 + alcohol
  T/C: 46 % of control
endpoint: median tumor weight change, dose: 800.0 mg/kg/injection, schedule: Q01DX001 (ip), vehicle: saline + Tween-80 + alcohol
  T/C: 32 % of control
endpoint: median tumor weight change, dose: 2000.0 mg/kg/injection, schedule: Q01DX001 (ip), vehicle: DMSO
  T/C: 61 % of control

## CC1(C)N=C(N)N=C(N)N1c1ccc(CCCCc2ccc(S(=O)(=O)F)cc2Cl)c(Cl)c1
endpoint: median tumor weight (est.), dose: 12.5 mg/kg/injection, schedule: Q07DX005 (ip), vehicle: other
  T/C: 95 % of control
[4]
  T/C: 42 % of control
endpoint: median tumor weight (est.), dose: 12.5 mg/kg/injection, schedule: Q07DX005 (ip), vehicle: suspension in saline
  T/C: 114 % of control
endpoint: median tumor weight (est.), dose: 25.0 mg/kg/injection, schedule: Q07DX005 (ip), vehicle: saline
  T/C: 60 % of control
endpoint: median tumor weight (est.), dose: 25.0 mg/kg/injection, schedule: Q07DX005 (ip), vehicle: suspension in saline
  T/C: 105 % of control
endpoint: median tumor weight (est.), dose: 50.0 mg/kg/injection, schedule: Q07DX005 (ip), vehicle: saline
  T/C: 39 % of control
endpoint: median tumor weight (est.), dose: 50.0 mg/kg/injection, schedule: Q07DX005 (ip), vehicle: suspension in saline
  T/C: 46 % of control
endpoint: median tumor weight (est.), dose: 100.0 mg/kg/injection, schedule: Q07DX005 (ip), vehicle: saline
  T/C: 20 % of control
endpoint: median tumor weight (est.), dose: 100.0 mg/kg/injection, schedule: Q07DX005 (ip), vehicle: suspension in saline
  T/C: 26 % of control
endpoint: median tumor weight (est.), dose: 200.0 mg/kg/injection, schedule: Q07DX005 (ip), vehicle: saline
  T/C: 5 % of control
endpoint: median tumor weight (est.), dose: 200.0 mg/kg/injection, schedule: Q07DX005 (ip), vehicle: suspension in saline
  T/C: 2 % of control
endpoint: median tumor weight change, dose: 90.0 mg/kg/injection, schedule: Q01DX001 (ip), vehicle: saline with Tween-80
  T/C: 50 % of control
endpoint: median tumor weight change, dose: 100.0 mg/kg/injection, schedule: Q01DX001 (ip), vehicle: saline with Tween-80
  T/C: 53 % of control
endpoint: median tumor weight change, dose: 112.5 mg/kg/injection, schedule: Q01DX001 (ip), vehicle: saline with Tween-80
  T/C: 84 % of control
endpoint: median tumor weight change, dose: 133.0 mg/kg/injection, schedule: Q01DX001 (ip), vehicle: saline with Tween-80
  T/C: 64 % of control
endpoint: median tumor weight change, dose: 200.0 mg/kg/injection, schedule: Q01DX001 (ip), vehicle: saline with Tween-80
  T/C: 12 % of control and 25 % of control
endpoint: median tumor weight change, dose: 225.0 mg/kg/injection, schedule: Q01DX001 (ip), vehicle: saline with Tween-80
  T/C: 49 % of control
endpoint: median tumor weight change, dose: 300.0 mg/kg/injection, schedule: Q01DX001 (ip), vehicle: saline with Tween-80
  T/C: 27 % of control
endpoint: median tumor weight change, dose: 450.0 mg/kg/injection, schedule: Q01DX001 (ip), vehicle: saline with Tween-80
  T/C: 12 % of control

## O=C(c1cccnc1)c1cc(-c2ccccn2)c(=O)n2ccccc12
endpoint: median tumor weight change, dose: 125.0 mg/kg/injection, schedule: Q01DX001 (ip), vehicle: saline with Tween-80
  T/C: 182 % of control
endpoint: median tumor weight change, dose: 250.0 mg/kg/injection, schedule: Q01DX001 (ip), vehicle: saline with Tween-80
  T/C: 77 % of control
endpoint: median tumor weight change, dose: 500.0 mg/kg/injection, schedule: Q01DX001 (ip), vehicle: saline with Tween-80
  T/C: 78 % of control
endpoint: median tumor weight change, dose: 1000.0 mg/kg/injection, schedule: Q01DX001 (ip), vehicle: saline with Tween-80
  T/C: 56 % of control
endpoint: median tumor weight change, dose: 2000.0 mg/kg/injection, schedule: Q01DX001 (ip), vehicle: saline with Tween-80
  T/C: 110 % of control

## C[Si](C)(C)OSc1ccccc1[N+](=O)[O-]
[1]
  T/C: 158 % of control
[2]
  T/C: 120 % of control
[3]
  T/C: 93 % of control
[5]
  T/C: 120 % of control
endpoint: median tumor weight change, dose: 2000.0 mg/kg/injection, schedule: Q01DX001 (ip), vehicle: Klucel (hydroxypropylcellulose) (HPC)
  T/C: 97 % of control

## [N-]=[N+]=CC(=O)CCC(=O)C=[N+]=[N-]
endpoint: median tumor weight (est.), dose: 6.25 mg/kg/injection, schedule: Q07DX005 (ip), vehicle: DMSO
  T/C: 65 % of control
endpoint: median tumor weight (est.), dose: 12.5 mg/kg/injection, schedule: Q07DX005 (ip), vehicle: DMSO
  T/C: 73 % of control
endpoint: median tumor weight (est.), dose: 25.0 mg/kg/injection, schedule: Q07DX005 (ip), vehicle: DMSO
  T/C: 78 % of control
endpoint: median tumor weight (est.), dose: 50.0 mg/kg/injection, schedule: Q07DX005 (ip), vehicle: DMSO
  T/C: 38 % of control
endpoint: median tumor weight (est.), dose: 100.0 mg/kg/injection, schedule: Q07DX005 (ip), vehicle: DMSO
  T/C: 47 % of control

## C[n+]1c2cc(N)ccc2cc2ccc(N)cc21
endpoint: median tumor weight (est.), dose: 6.25 mg/kg/injection, schedule: Q07DX005 (ip), vehicle: saline
  T/C: 104 % of control
[4]
  T/C: 211 % of control

## Cn1cc(C2NC(=O)c3ccccc3N2)c2ccccc21 (stereo not given)
endpoint: median tumor weight change, dose: 25.0 mg/kg/injection, schedule: Q01DX001 (ip), vehicle: Klucel (hydroxypropylcellulose) (HPC)
  T/C: 85 % of control
endpoint: median tumor weight change, dose: 50.0 mg/kg/injection, schedule: Q01DX001 (ip), vehicle: Klucel (hydroxypropylcellulose) (HPC)
  T/C: 85 % of control
endpoint: median tumor weight change, dose: 100.0 mg/kg/injection, schedule: Q01DX001 (ip), vehicle: Klucel (hydroxypropylcellulose) (HPC)
  T/C: 91 % of control
endpoint: median tumor weight change, dose: 200.0 mg/kg/injection, schedule: Q01DX001 (ip), vehicle: Klucel (hydroxypropylcellulose) (HPC)
  T/C: 71 % of control
[3]
  T/C: 68 % of control
[5]
  T/C: 33 % of control

## COc1cc([C@@H]2c3cc4c(cc3[C@@H](OC3OC5CO[C@@H](c6cccs6)OC5C(O)C3O)[C@H]3COC(=O)[C@H]23)OCO4)cc(OC)c1O (stereo not given in full)
endpoint: median tumor weight (est.), dose: 2.0 mg/kg/injection, schedule: Q07DX005 (ip), vehicle: suspension in saline
  T/C: 90 % of control and 103 % of control
endpoint: median tumor weight (est.), dose: 4.0 mg/kg/injection, schedule: Q07DX005 (ip), vehicle: saline
  T/C: 23 % of control
endpoint: median tumor weight (est.), dose: 4.0 mg/kg/injection, schedule: Q07DX005 (ip), vehicle: suspension in saline
  T/C: 87 % of control and 100 % of control
endpoint: median tumor weight (est.), dose: 8.0 mg/kg/injection, schedule: Q07DX005 (ip), vehicle: suspension in saline
  T/C: 81 % of control and 92 % of control
endpoint: median tumor weight (est.), dose: 16.0 mg/kg/injection, schedule: Q07DX005 (ip), vehicle: saline
  T/C: 47 % of control
endpoint: median tumor weight (est.), dose: 32.0 mg/kg/injection, schedule: Q07DX005 (ip), vehicle: saline
  T/C: 25 % of control
endpoint: median tumor weight (est.), dose: 32.0 mg/kg/injection, schedule: Q07DX005 (ip), vehicle: suspension in saline
  T/C: 51 % of control and 57 % of control
endpoint: median tumor weight change, dose: 20.0 mg/kg/injection, schedule: Q01DX001 (ip), vehicle: suspension in saline
  T/C: 96 % of control
endpoint: median tumor weight change, dose: 40.0 mg/kg/injection, schedule: Q01DX001 (ip), vehicle: suspension in saline
  T/C: 74 % of control
endpoint: median tumor weight change, dose: 80.0 mg/kg/injection, schedule: Q01DX001 (ip), vehicle: suspension in saline
  T/C: 91 % of control
endpoint: median tumor weight change, dose: 160.0 mg/kg/injection, schedule: Q01DX001 (ip), vehicle: suspension in saline
  T/C: 117 % of control
endpoint: median tumor weight change, dose: 320.0 mg/kg/injection, schedule: Q01DX001 (ip), vehicle: suspension in saline
  T/C: 80 % of control

## CCN(CC)CCCNc1nccc2c(C)c3[nH]c4ccncc4c3cc12
endpoint: median tumor weight change, dose: 25.0 mg/kg/injection, schedule: Q01DX001 (ip), vehicle: other
  T/C: 29 % of control and 32 % of control

## CNC(=O)OCc1c(COC(=O)NC)c(-c2ccccc2)n(C)c1-c1ccccc1
endpoint: median tumor weight change, dose: 31.25 mg/kg/injection, schedule: Q01DX001 (ip), vehicle: distilled water + Tween-80
  T/C: 54 % of control
